In ChEMBL document CHEMBL5665443, “Enzyme Inhibitor Single Concentration assay results for EUbOPEN Chemogenomics Library” (2024):

Tests used:
[1] = biological target: T1, Adenine DNA glycosylase (Homo sapiens) (UniProt Q9UIF7); conditions: Hit No;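 further: human MUTYH activity read as 594 nm fluorescence from cleavage and release of a quenched DNA duplex, coupled with APE1 for strand incision, lower signal meaning inhibition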
T1 sequence (whole entry): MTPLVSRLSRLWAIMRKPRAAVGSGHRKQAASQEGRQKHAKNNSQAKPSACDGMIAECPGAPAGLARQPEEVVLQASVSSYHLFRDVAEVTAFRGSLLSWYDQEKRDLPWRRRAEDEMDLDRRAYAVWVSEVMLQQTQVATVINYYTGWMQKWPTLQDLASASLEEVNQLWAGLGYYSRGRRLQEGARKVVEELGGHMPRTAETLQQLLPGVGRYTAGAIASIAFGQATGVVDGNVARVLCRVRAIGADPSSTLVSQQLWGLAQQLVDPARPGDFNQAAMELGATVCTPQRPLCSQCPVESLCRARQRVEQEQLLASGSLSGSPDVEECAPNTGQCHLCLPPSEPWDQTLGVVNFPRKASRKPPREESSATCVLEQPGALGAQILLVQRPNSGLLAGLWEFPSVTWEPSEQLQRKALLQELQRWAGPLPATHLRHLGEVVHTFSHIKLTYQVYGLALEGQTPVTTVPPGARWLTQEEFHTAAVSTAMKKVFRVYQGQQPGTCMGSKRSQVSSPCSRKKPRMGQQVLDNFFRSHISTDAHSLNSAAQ
Description: Inhibition of MUTYH by quantifying inhibition of MUTYH-mediated cleavage and dissociation of quenched duplex DNA oligonucleotides, measured as fluorescence at 594 nm. To generate a functional strand incision and increase turn-over this assay is coupled to APE1.

[2] = biological target: N-glycosylase/DNA lyase (Homo sapiens) (UniProt O15527); conditions: Hit No;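 further: OGG1 cleavage of a quenched duplex DNA oligonucleotide, coupled to APE1 for strand incision, read as fluorescence at 594 nm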
Sequence of N-glycosylase/DNA lyase (Homo sapiens) (O15527 whole entry): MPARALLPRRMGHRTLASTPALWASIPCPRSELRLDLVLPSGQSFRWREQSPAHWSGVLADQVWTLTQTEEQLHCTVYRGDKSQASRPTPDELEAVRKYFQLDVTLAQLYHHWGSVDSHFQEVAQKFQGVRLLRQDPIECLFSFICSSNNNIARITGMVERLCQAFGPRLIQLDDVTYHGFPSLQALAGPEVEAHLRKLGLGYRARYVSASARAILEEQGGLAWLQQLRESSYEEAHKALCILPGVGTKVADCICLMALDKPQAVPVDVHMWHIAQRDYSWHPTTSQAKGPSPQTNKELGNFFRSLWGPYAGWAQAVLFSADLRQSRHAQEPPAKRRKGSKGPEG
Description: Inhibition of OGG1 by quantifying inhibition of OGG1-mediated cleavage and dissociation of quenched duplex DNA oligonucleotides, measured as fluorescence at 594 nm. To generate a functional strand incision and increase turn-over this assay is coupled to APE1.

[3] = biological target: Uracil-DNA glycosylase (Homo sapiens) (UniProt P13051); conditions: Hit No;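 further: UNG excision on a quenched double-stranded DNA oligo probe, with APE1 added for strand incision and turnover, read as fluorescence at 594 nm as strands separate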
Sequence of Uracil-DNA glycosylase (Homo sapiens) (P13051 whole entry): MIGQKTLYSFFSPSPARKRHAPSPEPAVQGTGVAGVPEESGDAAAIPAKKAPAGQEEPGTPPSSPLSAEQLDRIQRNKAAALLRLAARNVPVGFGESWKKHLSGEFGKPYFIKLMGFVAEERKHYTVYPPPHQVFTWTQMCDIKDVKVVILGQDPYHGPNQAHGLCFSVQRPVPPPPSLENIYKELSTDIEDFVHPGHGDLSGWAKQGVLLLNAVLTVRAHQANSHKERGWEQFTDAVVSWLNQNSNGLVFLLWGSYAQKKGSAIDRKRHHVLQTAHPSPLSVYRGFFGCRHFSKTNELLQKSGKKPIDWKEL
Description: Inhibition of UNG by quantifying inhibition of UNG-mediated cleavage and dissociation of quenched duplex DNA oligonucleotides, measured as fluorescence at 594 nm. To generate a functional strand incision and increase turn-over this assay is coupled to APE1.

[4] = biological target: T2, Endonuclease 8-like 2 (Homo sapiens) (UniProt Q969S2); conditions: Hit No;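 further: fluorescence at 594 nm reports NEIL2 cutting and release of a quenched double-stranded DNA oligo substrate, reduced signal read as inhibition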
T2 sequence (whole entry): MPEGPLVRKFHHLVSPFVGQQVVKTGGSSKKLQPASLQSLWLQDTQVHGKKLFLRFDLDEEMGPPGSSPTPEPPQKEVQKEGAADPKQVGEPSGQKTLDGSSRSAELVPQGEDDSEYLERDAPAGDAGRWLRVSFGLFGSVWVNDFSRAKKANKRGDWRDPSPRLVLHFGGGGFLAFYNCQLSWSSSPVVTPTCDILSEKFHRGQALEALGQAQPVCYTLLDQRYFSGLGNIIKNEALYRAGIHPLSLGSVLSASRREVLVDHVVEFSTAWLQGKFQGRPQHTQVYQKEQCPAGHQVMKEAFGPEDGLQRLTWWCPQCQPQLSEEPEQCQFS
Description: Inhibition of NEIL2 by quantifying inhibition of NEIL2-mediated cleavage and dissociation of quenched duplex DNA oligonucleotides, measured as fluorescence at 594 nm.

[5] = biological target: Endonuclease 8-like 1 (Homo sapiens) (UniProt Q96FI4); conditions: Compound Concentration 10.0 uM, Hit No;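 further: fluorescence at 594 nm from quenched duplex DNA oligonucleotides released by NEIL1 cleavage and strand separation, reported as reduction of this enzyme activity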
Sequence of Endonuclease 8-like 1 (Homo sapiens) (Q96FI4 whole entry): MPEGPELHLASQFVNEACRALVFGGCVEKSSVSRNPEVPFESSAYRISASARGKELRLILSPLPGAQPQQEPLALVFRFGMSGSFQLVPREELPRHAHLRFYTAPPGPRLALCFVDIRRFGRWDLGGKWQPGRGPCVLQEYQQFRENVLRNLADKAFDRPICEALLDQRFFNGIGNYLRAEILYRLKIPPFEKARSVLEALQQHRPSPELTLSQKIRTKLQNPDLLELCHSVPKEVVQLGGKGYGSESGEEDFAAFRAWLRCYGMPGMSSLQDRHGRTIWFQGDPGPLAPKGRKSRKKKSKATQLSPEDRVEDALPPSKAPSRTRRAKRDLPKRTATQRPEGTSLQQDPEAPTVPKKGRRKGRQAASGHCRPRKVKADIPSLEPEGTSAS
Description: Inhibition of NEIL1 by quantifying inhibition of NEIL1-mediated cleavage and dissociation of quenched duplex DNA oligonucleotides, measured as fluorescence at 594 nm.

[6] = biological target: T3, Single-strand selective monofunctional uracil DNA glycosylase (Homo sapiens) (UniProt Q53HV7); conditions: Hit No;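 further: enzymatic SMUG1 assay coupled with APE1, reading fluorescence at 594 nm released when a quenched double-stranded DNA oligonucleotide substrate is cleaved and separated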
T3 sequence (whole entry): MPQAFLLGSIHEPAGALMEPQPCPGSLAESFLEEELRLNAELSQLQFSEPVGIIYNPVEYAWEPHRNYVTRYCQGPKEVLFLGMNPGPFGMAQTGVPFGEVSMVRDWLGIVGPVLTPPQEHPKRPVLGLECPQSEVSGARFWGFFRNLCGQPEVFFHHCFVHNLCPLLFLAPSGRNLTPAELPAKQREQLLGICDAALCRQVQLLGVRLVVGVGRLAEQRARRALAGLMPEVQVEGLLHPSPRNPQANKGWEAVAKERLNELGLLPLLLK
Description: Inhibition of SMUG1 by quantifying inhibition of SMUG1-mediated cleavage and dissociation of quenched duplex DNA oligonucleotides, measured as fluorescence at 594 nm. To generate a functional strand incision and increase turn-over this assay is coupled to APE1.

[7] = biological target: Methyl-CpG-binding domain protein 4 (Homo sapiens) (UniProt O95243); conditions: Hit No;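 further: MBD4 activity read as fluorescence at 594 nm from cleavage and release of a quenched duplex DNA oligonucleotide, with APE1 coupled to incise the strand and raise turnover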
Sequence of Methyl-CpG-binding domain protein 4 (Homo sapiens) (O95243 whole entry, the tested form may be a part): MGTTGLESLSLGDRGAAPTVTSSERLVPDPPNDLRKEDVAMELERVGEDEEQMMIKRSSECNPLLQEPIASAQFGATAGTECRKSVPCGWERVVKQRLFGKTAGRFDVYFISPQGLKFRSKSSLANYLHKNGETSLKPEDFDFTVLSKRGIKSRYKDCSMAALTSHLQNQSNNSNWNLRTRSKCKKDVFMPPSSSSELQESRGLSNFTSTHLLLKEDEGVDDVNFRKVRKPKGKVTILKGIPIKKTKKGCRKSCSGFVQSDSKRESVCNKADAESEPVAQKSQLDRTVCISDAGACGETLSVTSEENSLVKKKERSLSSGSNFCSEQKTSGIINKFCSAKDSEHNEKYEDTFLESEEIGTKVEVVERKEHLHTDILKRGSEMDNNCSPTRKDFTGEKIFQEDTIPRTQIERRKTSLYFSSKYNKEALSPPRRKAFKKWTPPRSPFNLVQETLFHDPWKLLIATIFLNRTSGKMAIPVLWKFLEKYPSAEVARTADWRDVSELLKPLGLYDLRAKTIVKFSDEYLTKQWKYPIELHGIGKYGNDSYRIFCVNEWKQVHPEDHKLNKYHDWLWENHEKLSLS
Description: Inhibition of MBD4 by quantifying inhibition of MBD4-mediated cleavage and dissociation of quenched duplex DNA oligonucleotides, measured as fluorescence at 594 nm. To generate a functional strand incision and increase turn-over this assay is coupled to APE1.

[8] = biological target: T4, Endonuclease III-like protein 1 (Homo sapiens) (UniProt P78549); conditions: Hit No;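 further: enzyme assay tracking NTHL1 cutting and release of a quenched double-stranded DNA oligo substrate, read as fluorescence at 594 nm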
T4 sequence (whole entry): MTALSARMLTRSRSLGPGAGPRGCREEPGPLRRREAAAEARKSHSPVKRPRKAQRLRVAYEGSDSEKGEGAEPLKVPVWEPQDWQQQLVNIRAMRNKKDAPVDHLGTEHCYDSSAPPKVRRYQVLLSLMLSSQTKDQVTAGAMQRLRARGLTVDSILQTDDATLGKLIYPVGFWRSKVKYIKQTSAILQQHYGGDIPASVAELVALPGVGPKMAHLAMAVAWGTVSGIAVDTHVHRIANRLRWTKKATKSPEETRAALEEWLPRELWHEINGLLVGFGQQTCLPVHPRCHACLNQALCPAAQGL
Description: Inhibition of NTHL1 by quantifying inhibition of NTHL1-mediated cleavage and dissociation of quenched duplex DNA oligonucleotides, measured as fluorescence at 594 nm.

[9] = biological target: G/T mismatch-specific thymine DNA glycosylase (Homo sapiens) (UniProt Q13569); conditions: Hit No;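 further: human TDG cleavage of quenched duplex DNA oligonucleotides coupled to APE1, strand release read as fluorescence at 594 nm, inhibition of TDG activity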
Sequence of G/T mismatch-specific thymine DNA glycosylase (Homo sapiens) (Q13569 whole entry): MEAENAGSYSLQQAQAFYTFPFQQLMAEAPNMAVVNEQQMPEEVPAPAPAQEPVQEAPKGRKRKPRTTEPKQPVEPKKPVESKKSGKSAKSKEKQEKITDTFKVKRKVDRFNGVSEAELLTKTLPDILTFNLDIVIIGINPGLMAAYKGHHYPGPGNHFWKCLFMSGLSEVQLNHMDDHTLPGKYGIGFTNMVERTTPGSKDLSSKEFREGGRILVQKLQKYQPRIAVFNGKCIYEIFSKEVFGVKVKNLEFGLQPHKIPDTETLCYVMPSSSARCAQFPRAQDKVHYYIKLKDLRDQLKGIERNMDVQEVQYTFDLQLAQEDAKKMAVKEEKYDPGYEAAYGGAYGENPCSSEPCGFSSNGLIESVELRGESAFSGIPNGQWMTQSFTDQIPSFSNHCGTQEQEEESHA
Description: Inhibition of TDG by quantifying inhibition of TDG-mediated cleavage and dissociation of quenched duplex DNA oligonucleotides, measured as fluorescence at 594 nm. To generate a functional strand incision and increase turn-over this assay is coupled to APE1.

inhibition ([1]; Compound Concentration 10.0 uM)	inhibition ([2]; Compound Concentration 10.0 uM)	inhibition ([3]; Compound Concentration 10.0 uM)	inhibition ([4]; Compound Concentration 10.0 uM)	inhibition [5]	inhibition ([6]; Compound Concentration 10.0 uM)	inhibition ([7]; Compound Concentration 10.0 uM)	inhibition ([8]; Compound Concentration 10.0 uM)	inhibition ([9]; Compound Concentration 10.0 uM)	inhibition ([1]; Compound Concentration 1.0 uM)	inhibition ([3]; Compound Concentration 1.0 uM)	inhibition ([6]; Compound Concentration 1.0 uM)	inhibition ([7]; Compound Concentration 1.0 uM)	inhibition ([8]; Compound Concentration 1.0 uM)	inhibition ([9]; Compound Concentration 1.0 uM)	inhibition ([2]; Compound Concentration 1.0 uM)	inhibition ([4]; Compound Concentration 1.0 uM)	Compound
-2.13%	13.5%	0.734%	4.36%	-1.35%	19.5%	59.4%	1.34%	98.9%	–	–	–	–	–	–	–	–	CCOC(=O)C1Cc2ccccc2CN1C(=O)c1ccc(SC)s1 (configuration not stated)
17.8%	-6.13%	-7.49%	2.76%	8.25%	-2.21%	-3.22%	2.66%	6.82%	–	–	–	–	–	–	–	–	Nc1ncnc2c1ncn2[C@@H]1O[C@H](CO)[C@@H](O)[C@H]1O
0.114%	3.38%	3.89%	-0.744%	–	16.4%	58.8%	5.94%	47.6%	–	–	–	–	–	–	–	–	CC(=O)N1CCC(c2ccc(C(=O)NC(=N)N)cc2C(F)(F)F)CC1
11.1%	22.5%	-2.07%	-6.61%	–	0.186%	64.2%	-5.89%	50.9%	–	–	–	–	–	–	–	–	O=S(=O)(c1ccccc1)N(CC(F)(F)F)c1ccc(C(O)(C(F)(F)F)C(F)(F)F)cc1
5.03%	7.36%	2.54%	-5.85%	–	17.9%	72.7%	-4.57%	20.6%	–	–	–	–	–	–	–	–	CCn1c(=O)c(C)cn(Cc2nnc(-c3ccc(F)c(OC)c3F)s2)c1=O
7.33%	35.9%	4.37%	17.9%	–	10.3%	59.6%	-8.52%	58.6%	–	–	–	–	–	–	–	–	Cc1c(NC(=O)COc2ccc(Cl)cc2C(=O)c2cc(F)cc(C(F)(F)F)c2)ccc(C(=O)O)c1F
18.6%	4.91%	2.96%	1.25%	–	17.6%	24.9%	7.43%	72.9%	–	–	–	–	–	–	–	–	CC1=C(C#N)C(c2ccc3[nH]nc(C)c3c2)C(C#N)=C(C)N1
-1.09%	-0.262%	-6.06%	-8.14%	–	15.9%	51.2%	0.685%	97.5%	–	–	–	–	–	–	–	–	CCS(=O)(=O)c1cc2cc(C[C@](O)(CC(C)(C)c3ccc(F)cc3C(N)=O)C(F)(F)F)[nH]c2cn1
12.7%	46.7%	4.09%	4.87%	–	24.3%	65.2%	5.94%	79.3%	–	–	–	–	–	–	–	–	O=C1CCc2cc(Nc3cc(OC4CCOCC4)c([N+](=O)[O-])cc3Cl)ccc2N1
-4.2%	5.59%	-3.11%	2.32%	–	23.9%	58.8%	1.34%	99%	–	–	–	–	–	–	–	–	O=C(O)CCCc1cc2cc(Cl)ccc2n1S(=O)(=O)c1ccc2ncsc2c1
-9.5%	3.38%	0.459%	1.55%	–	18.2%	58%	-7.86%	40.6%	–	–	–	–	–	–	–	–	COC(=O)c1sccc1S(=O)(=O)Nc1ccc(Nc2ccccc2)cc1OC
2.96%	24%	-3.65%	0.531%	–	-2.05%	64.1%	8.57%	99.9%	–	–	–	–	–	–	–	–	Cn1cc(C(=O)O)c2ccc(N3CCC(OCc4c(-c5c(Cl)cccc5Cl)noc4C4CC4)CC3)cc21
6.4%	-3.66%	-0.0445%	6.91%	–	11.2%	57%	13.2%	48.7%	–	–	–	–	–	–	–	–	CC(=O)N1CCC(c2ccc(C(=O)NC3=NCCN3)cc2C(F)(F)F)CC1
–	18.8%	2.56%	-7.12%	–	11.1%	-6.81%	-6.55%	15.4%	-8.55%	3.16%	20%	-6.71%	-0.61%	41%	–	–	CN1CCN(C(=O)C(C)(C)c2ccc(C(=O)Nc3cn4cc(-c5cc(C(C)(C)C)cc(C(C)(C)C)c5)ccc4n3)cc2)CC1
–	–	–	–	–	–	–	–	–	5.54%	2.22%	12.5%	21.1%	1.82%	42.8%	5.71%	-5.67%	CN1C(=O)[C@@H](N2CCc3cn(Cc4ccccc4)nc3C2=O)COc2ccccc21
–	–	–	–	–	–	–	–	–	-2.18%	8.33%	29.1%	2.33%	-5.49%	70.6%	10.1%	-0.572%	CN(C)C(=O)/C(C#N)=C/c1ccc(-c2nc3cnc4[nH]ccc4c3n2C2CCCCC2)o1
5.36%	10.5%	10.2%	-7.63%	–	22.3%	64.6%	-1.29%	48.5%	–	–	–	–	–	–	–	–	COc1nc2ccc([C@@](O)(c3ccccc3)C3CCN(C(C)=O)CC3)cc2c(Cl)c1Cc1ccc(-n2cccn2)cc1
7.16%	7.16%	5.34%	-3.04%	–	26.5%	55.2%	9.89%	58.4%	–	–	–	–	–	–	–	–	CC(C)C(=O)N1CCC(c2cn(C)c3ncc(NC(=O)c4cccc(C#N)c4)c(C(F)(F)F)c23)CC1
-6.77%	32.3%	3.85%	-3.55%	–	30.4%	63.6%	15.2%	40.4%	–	–	–	–	–	–	–	–	O=C(O)Cc1cc(I)c(Oc2ccc(O)c(I)c2)c(I)c1
-2.6%	9.82%	2.17%	-10%	–	21.4%	-7.86%	-0.61%	49.6%	–	–	–	–	–	–	–	–	COc1cc(F)ccc1-c1ncnc(Nc2cccc(C[S@](C)(=N)=O)c2)n1

Compound	inhibition ([1]; Compound Concentration 10.0 uM)	inhibition ([2]; Compound Concentration 10.0 uM)	inhibition ([3]; Compound Concentration 10.0 uM)	inhibition ([4]; Compound Concentration 10.0 uM)	inhibition [5]	inhibition ([6]; Compound Concentration 10.0 uM)	inhibition ([7]; Compound Concentration 10.0 uM)	inhibition ([8]; Compound Concentration 10.0 uM)	inhibition ([9]; Compound Concentration 10.0 uM)	inhibition ([1]; Compound Concentration 1.0 uM)	inhibition ([3]; Compound Concentration 1.0 uM)	inhibition ([6]; Compound Concentration 1.0 uM)	inhibition ([7]; Compound Concentration 1.0 uM)	inhibition ([8]; Compound Concentration 1.0 uM)	inhibition ([9]; Compound Concentration 1.0 uM)	inhibition ([2]; Compound Concentration 1.0 uM)	inhibition ([4]; Compound Concentration 1.0 uM)
O=C(N[C@@H]1C2CCN(CC2)[C@H]1Cc1cccnc1)c1cc2ccccc2o1	-1.82%	-7.23%	-1.31%	1.94%	5.2%	-7.47%	-7.25%	27.8%	-0.849%	–	–	–	–	–	–	–	–
Cn1cncc1[C@](O)(COc1ccc(C#N)cc1-c1ccc(OC(F)(F)F)cc1)c1ccc(C#N)cc1	-9.34%	7.95%	-1.26%	0.531%	–	-2.99%	62%	10.6%	37.9%	–	–	–	–	–	–	–	–
COc1nc2ccc([C@@](O)(c3ccc(Cl)cc3)c3cncn3C)cc2c(Cl)c1Cc1ccc(-n2cccn2)cc1	6.4%	14.3%	9.26%	-3.55%	–	16.6%	64.5%	-3.26%	42.9%	–	–	–	–	–	–	–	–
